The term inhibition in vivo denotes the drop in the measured response relative to a control, in per cent. One may read the IC50 as the point on the concentration scale where inhibition reaches its midpoint.

Assay [1] in a line: Cytotoxicity against human Jurkat cells assessed as cell survival at 10 uM measured after 48 hrs by MTT assay relative to control. Format: functional. The note with it: read-out: Survival. (Formazan colour is commonly taken as a measure of viable cells.)
Assay [2] can be described thus: Cytotoxicity against human HCT116 cells assessed as cell survival at 10 uM measured after 48 hrs by MTT assay relative to control. Format: functional. To be noted: HCT-116, 48 h, read-out: Survival.
Assay [3] is described as follows: Cytotoxicity against human MDA-MB-231 cells assessed as cell survival at 10 uM measured after 48 hrs by MTT assay relative to control. Format: functional. The note with it: MDA-MB-231, 48 h, read-out: Survival.
In assay [4] the test system is Rattus norvegicus. Briefly: Antiinflammatory activity in rat assessed as inhibition of carrageenan-induced hind paw edema at 50 mg/Kg, po administered 30 mins before carrageenan challenge measured after 1 hr relative to control. It counts as functional. Background: Carrageenan injected into the paw causes an acute inflammation.
Assay [5] relates to Rattus norvegicus. Briefly: Antiinflammatory activity in rat assessed as inhibition of carrageenan-induced hind paw oedema at 50 mg/Kg, po administered 30 mins before carrageenan challenge measured after 2 hrs relative to control. It counts as functional.
Assay [6] has as its system Rattus norvegicus. Briefly: Antiinflammatory activity in rat assessed as inhibition of carrageenan-induced hind paw oedema at 50 mg/Kg, po administered 30 mins before carrageenan challenge measured after 3 hrs relative to control. Format: functional.
For assay [7], the system named is Rattus norvegicus. Briefly: Antiinflammatory activity in rat assessed as inhibition of carrageenan-induced hind paw oedema at 50 mg/Kg, po administered 30 mins before carrageenan challenge measured after 4 hrs relative to control. Format: functional.
A short description of assay [8]: Cytotoxicity against human HCT116 cells assessed as effect on cell viability measured after 48 hrs by MTT assay. Format: functional, cell-based. To be noted: HCT-116, 48 h.
The nature of assay [9]: Cytotoxicity against human MDA-MB-231 cells assessed as effect on cell viability measured after 48 hrs by MTT assay. The note with it: MDA-MB-231, 48 h. It counts as functional, cell-based.
The nature of assay [10]: Cytotoxicity against human Jurkat cells assessed as effect on cell viability measured after 48 hrs by MTT assay. Format: functional, cell-based.
In the next assay the test system is Jurkat. Briefly: Induction of apoptosis in human Jurkat cells assessed as activation of caspase 3/7 at 1 uM measured after 48 hrs by fluorescence assay relative to control. Format: functional.

With `O=C(NCCc1c[nH]c2ccccc12)c1csc(-c2ccco2)n1`, the viability at 10 µM in assay [1] was determined as 87.2%; in assay [2], 96.9%; in assay [3], 84.4%. In addition, the inhibition in vivo at 50 mg/kg with Rattus norvegicus [4] came out at 75%; in the assay with Rattus norvegicus [5], 69%; in the assay with Rattus norvegicus [6], 49%; in the assay on Rattus norvegicus [7], 46%.
With `O=C(NCCc1c[nH]c2ccccc12)c1csc(Nc2ccc(F)cc2)n1`, the inhibition in vivo at 50 mg/kg with Rattus norvegicus [4] was 83%; with Rattus norvegicus [5], 60%; in the assay with Rattus norvegicus [6], 59%; in the assay with Rattus norvegicus [7], 42%.
Consider `O=C(NCCc1c[nH]c2ccccc12)c1csc(Nc2ccc(Cl)cc2)n1`, for which the inhibition in vivo at 50 mg/kg with Rattus norvegicus [4] was 49%; in the assay with Rattus norvegicus [5] it was 59%; in the assay with Rattus norvegicus [6], 50%; in the assay on Rattus norvegicus [7], 41%.
As for `Nc1nc(C(=O)NCCc2c[nH]c3ccccc23)cs1`, the viability at 10 µM was determined as 42.3% in assay [1], 20.3% in [2] and 24.8% in [3]. For the same compound, the IC50 came to 5400 nM in assay [8], 3000 nM in assay [9] and 3000 nM in [10]. The “fold change (FC)” value with Jurkat was 4 - 5. In addition, the inhibition in vivo at 50 mg/kg was 86% in the assay with Rattus norvegicus [4], 74% with Rattus norvegicus [5], 54% in the assay with Rattus norvegicus [6] and 82% in the assay with Rattus norvegicus [7].
`Cc1nc(C(=O)NCCc2c[nH]c3ccccc23)cs1`: the viability at 10 µM in [1] was found to be 88.1%; in [2], 97%; in [3] it was 90.4%. Besides, the inhibition in vivo at 50 mg/kg in the assay with Rattus norvegicus [4] was determined as 63%; in the assay on Rattus norvegicus [5], 60%; in the assay on Rattus norvegicus [6], 44%; with Rattus norvegicus [7], 50%.
Turning to `O=C(NCCc1c[nH]c2ccccc12)c1csc(Nc2ccccc2)n1`, the viability at 10 µM in assay [1] is 40.1%; in assay [2], 10.3%; in [3], 20.1%. In addition, the 50% inhibitory concentration (IC50) in assay [8] amounted to 100 nM; in assay [9], 600 nM; in assay [10], 500 nM. In addition, the “fold change (FC)” value with Jurkat was 4 - 5. For the same compound, the inhibition in vivo at 50 mg/kg is 77% with Rattus norvegicus [4], 73% with Rattus norvegicus [5], 65% in the assay with Rattus norvegicus [6] and 78% in the assay on Rattus norvegicus [7].
In the case of `COc1ccc2c(c1)c(CC(=O)O)c(C)n2C(=O)c1ccc(Cl)cc1` [INDOMETHACIN], the inhibition in vivo at 50 mg/kg in the assay with Rattus norvegicus [4] came to 94%; in the assay on Rattus norvegicus [5], 84%; with Rattus norvegicus [6], 81%; in the assay with Rattus norvegicus [7], 86%.
For `O=C(NCCc1c[nH]c2ccccc12)c1csc(-c2cccs2)n1`, the viability at 10 µM in assay [1] is 87.7%; in assay [2], 93.9%; in assay [3] it was 85.4%. The inhibition in vivo at 50 mg/kg with Rattus norvegicus [4] stood at 82%; with Rattus norvegicus [5], 76%; in the assay with Rattus norvegicus [6] it was 58%; in the assay on Rattus norvegicus [7] it was 62%.
On to `O=C(NCCc1c[nH]c2ccccc12)c1csc(-c2ccc(Cl)cc2)n1`, for which the viability at 10 µM in assay [1] stood at 84.8%; in assay [2] it was 99.2%; in assay [3], 94.8%. For the same compound, the inhibition in vivo at 50 mg/kg in the assay with Rattus norvegicus [4] came out at 68%; with Rattus norvegicus [5] it was 63%; in the assay with Rattus norvegicus [6] it was 62%; with Rattus norvegicus [7], 56%.
Turning to `Cc1ccc(-c2nc(C(=O)NCCc3c[nH]c4ccccc34)cs2)cc1`, the viability at 10 µM is 88.3% in assay [1], 108% in assay [2] and 87.3% in [3]. Moreover, the inhibition in vivo at 50 mg/kg in the assay on Rattus norvegicus [4] came to 81%; in the assay on Rattus norvegicus [5], 77%; in the assay on Rattus norvegicus [6] it was 57%; in the assay with Rattus norvegicus [7] it was 70%.
In the case of `O=C(NCCc1c[nH]c2ccccc12)c1csc(Nc2ccc([N+](=O)[O-])cc2)n1`, the viability at 10 µM in [1] was 92.5%; in [2], 72.1%; in assay [3], 92.3%. In addition, the inhibition in vivo at 50 mg/kg was 66% in the assay on Rattus norvegicus [4], 59% with Rattus norvegicus [5], 57% in the assay with Rattus norvegicus [6] and 50% with Rattus norvegicus [7].
As to `O=C(NCCc1c[nH]c2ccccc12)c1csc(-c2ccccc2)n1`, the viability at 10 µM in assay [1] was 87.3%; in assay [2], 97.6%; in assay [3] it was 88.3%. Further, the inhibition in vivo at 50 mg/kg in the assay on Rattus norvegicus [4] is 55%; in the assay on Rattus norvegicus [5], 62%; in the assay on Rattus norvegicus [6], 25%; in the assay on Rattus norvegicus [7], 57%.
In the case of `Cc1ccc(Nc2nc(C(=O)NCCc3c[nH]c4ccccc34)cs2)cc1`, the inhibition in vivo at 50 mg/kg with Rattus norvegicus [4] amounted to 52%; with Rattus norvegicus [5], 57%; in the assay with Rattus norvegicus [6], 46%; with Rattus norvegicus [7], 38%.
Consider `CC(=O)c1nc(C(=O)NCCc2c[nH]c3ccccc23)cs1` [BACILLAMIDE A], for which the viability at 10 µM in assay [1] turned out to be 85.1%; in [2] it was 81.1%; in assay [3] it was 105%. Moreover, the inhibition in vivo at 50 mg/kg came to 58% in the assay on Rattus norvegicus [4], 56% in the assay with Rattus norvegicus [5], 46% with Rattus norvegicus [6] and 42% in the assay with Rattus norvegicus [7].
On to `COc1cccc2c1C(=O)c1c(O)c3c(c(O)c1C2=O)C[C@@](O)(C(=O)CO)C[C@@H]3O[C@H]1C[C@H](N)[C@H](O)[C@H](C)O1` [DOXORUBICIN], for which the figures for the viability at 10 µM in [1], in assay [2] and in assay [3] were 18.7%, 23.1% and 22.1%, respectively. In addition, the IC50 in assay [8] is 330 nM; in assay [9] it was 450 nM.
Turning to `O=C(NCCc1c[nH]c2ccccc12)c1csc(Cc2ccccc2)n1`, the viability at 10 µM in [1] turned out to be 87.3%; in [2] it was 101%; in assay [3] it was 89%. For the same compound, the inhibition in vivo at 50 mg/kg with Rattus norvegicus [4] worked out at 76%; with Rattus norvegicus [5] it was 57%; with Rattus norvegicus [6], 45%; in the assay with Rattus norvegicus [7] it was 42%.
For `O=C(NCCc1c[nH]c2ccccc12)c1csc(Nc2ccc(Br)cc2)n1`, the values for the viability at 10 µM in assay [1], in [2] and in [3] were 85.5%, 55.3% and 41.5%, respectively. Besides, the inhibition in vivo at 50 mg/kg with Rattus norvegicus [4] was 23%; in the assay on Rattus norvegicus [5] it was 54%; in the assay on Rattus norvegicus [6], 49%; in the assay on Rattus norvegicus [7], 46%.

The values are drawn from ChEMBL document CHEMBL3872221, “Solvent-free synthesis of bacillamide analogues as novel cytotoxic and anti-inflammatory agents” (Eur J Med Chem, 2016).
